Experimental data published in patent US20200216416A1, “QUINOLINE COMPOUNDS AS INHIBITORS OF TAM AND MET KINASES” (Array BioPharma Inc., priority 2019, published 2020).

Key:
[1] = target: T1, human MET kinase F1200I (Homo sapiens, UniProt P08581, F1200I); assay: c-Met Enzyme Assay, F1200I mutant; format: binding; details: averaged IC50; F1200I 2 nM; 60-minute incubation at 22° C.
T1 construct: GST-tagged recombinant human MET kinase domain; purchased Signal Chem
Method: (§1) The affinity of compound binding to wild type and mutant human MET kinases was measured using Invitrogen's LanthaScreen™ Eu Kinase Binding technology. Briefly, GST-tagged recombinant human MET kinase domain from Signal Chem (see Table 8 below for concentration in assay) was incubated with 50 nM Alexa-Fluor® Tracer 236 (Invitrogen Cat No. PR9078A) and 2 nM Europium-anti-GST (Invitrogen Cat. No. A15116) along with test compound in a buffer consisting of 25 mM HEPES, pH 7.4, 10 mM MgCl2, 0.01% Triton X-100, 1mM DTT, and 2% DMSO. Compounds were typically prepared in a three-fold serial dilution in DMSO and added to the assay to give the appropriate final concentration. After a 60-minute incubation at 22° C., the reaction was measured using a PerkinElmer EnVision multimode plate reader via TR-FRET dual wavelength detection, and the percent of control (POC) calculated using a ratiometric emission factor. […] The POC values were fit to a 4 parameter logistic curve and the IC50 value is point where the curve crosses 50 POC.

[2] = target: T2, human MET kinase Y1230H (Homo sapiens, UniProt P08581, Y1230H); assay: c-Met Enzyme Assay, Y1230H mutant; format: binding; details: averaged IC50; Y1230H 5 nM; 60-minute incubation at 22° C.; read-out: Y1230 H IC50
T2 construct: GST-tagged recombinant human MET kinase domain; purchased Signal Chem
Method: as §1

[3] = target: T3, His-tagged recombinant human MER cytoplasmic domain (Homo sapiens, UniProt Q12866); assay: MER Enzyme Assay (LanthaScreen Eu Kinase Binding); details: averaged IC50; MER 5 nM; 60-minute incubation at 22° C.; TR-FRET
T3 construct: His-tagged recombinant human MER cytoplasmic domain
T3 sequence (Q12866 527-999 limits assumed): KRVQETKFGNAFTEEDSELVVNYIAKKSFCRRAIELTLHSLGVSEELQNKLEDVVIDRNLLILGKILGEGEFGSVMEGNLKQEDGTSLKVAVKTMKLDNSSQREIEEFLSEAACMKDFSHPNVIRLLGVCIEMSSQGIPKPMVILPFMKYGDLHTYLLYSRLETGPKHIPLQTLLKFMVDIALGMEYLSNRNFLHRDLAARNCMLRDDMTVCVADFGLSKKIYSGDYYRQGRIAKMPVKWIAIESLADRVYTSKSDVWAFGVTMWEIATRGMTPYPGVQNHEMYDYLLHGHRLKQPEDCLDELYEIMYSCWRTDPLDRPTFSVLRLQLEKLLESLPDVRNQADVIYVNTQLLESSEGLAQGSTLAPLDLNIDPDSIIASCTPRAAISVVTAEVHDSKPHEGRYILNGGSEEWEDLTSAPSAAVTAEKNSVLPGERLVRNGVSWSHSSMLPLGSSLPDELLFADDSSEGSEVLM
Method in brief: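 TR-FRET binding: 5 nM His-MER cytoplasmic domain with 20 nM Tracer 236, 2 nM biotin-anti-His and 2 nM Eu-streptavidin in pH 7.4 HEPES, 10 mM MgCl2, 2% DMSO, with threefold compound dilutions, 60 min at 22 °C. Percent of control was fit to a 4-parameter logistic, and IC50 was taken at 50 POC.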

[4] = target: T4, human MET kinase del Ex14 (Homo sapiens, UniProt P08581, DEL963-1009); assay: c-Met Enzyme Assay, del Ex14 mutant; format: binding; details: averaged IC50; del Ex14 5 nM; 60-minute incubation at 22° C.; read-out: Del14 IC50
T4 construct: GST-tagged recombinant human MET kinase domain; purchased Signal Chem
Method: as §1

[5] = target: T5, human MET kinase Y1230S (Homo sapiens, UniProt P08581, Y1230S); assay: c-Met Enzyme Assay, Y1230S mutant; format: binding; details: averaged IC50; Y1230S 8 nM; 60-minute incubation at 22° C.; read-out: Y1230 S IC50
T5 construct: GST-tagged recombinant human MET kinase domain; purchased Signal Chem
Method: as §1

[6] = target: T6, GST-tagged recombinant human TYRO3 kinase domain (Homo sapiens, UniProt Q06418); assay: TYRO3 Enzyme Assay (LanthaScreen Eu Kinase Binding); details: averaged IC50; TYRO3 5 nM; 60-minute incubation at 22° C.; TR-FRET
T6 construct: GST-tagged recombinant human TYRO3 kinase domain; purchased Carna PR7480A
T6 sequence (Q06418 518-790 limits assumed): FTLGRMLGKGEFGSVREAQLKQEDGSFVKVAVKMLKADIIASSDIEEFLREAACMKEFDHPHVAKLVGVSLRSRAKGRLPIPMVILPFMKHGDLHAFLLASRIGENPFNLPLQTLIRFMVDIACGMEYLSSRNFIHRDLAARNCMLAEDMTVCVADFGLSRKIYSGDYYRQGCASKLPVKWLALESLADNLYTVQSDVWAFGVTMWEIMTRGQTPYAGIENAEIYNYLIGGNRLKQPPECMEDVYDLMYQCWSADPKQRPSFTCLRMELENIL
Method in brief: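 Competitive tracer-displacement TR-FRET: 5 nM kinase, 20 nM Alexa-Fluor Tracer 236 and 2 nM Eu-anti-GST with threefold-diluted compound in 25 mM HEPES pH 7.4, 10 mM MgCl2, 0.01% Triton X-100, 2% DMSO, 60 min at 22° C. Ratiometric percent of control fitted to a 4-parameter logistic; IC50 at 50 POC.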

[7] = target: T7, human MET kinase D1228H (Homo sapiens, UniProt P08581, D1228H); assay: c-Met Enzyme Assay, D1228H mutant; format: binding; details: averaged IC50; D1228H 2 nM; 60-minute incubation at 22° C.; read-out: D1228 H IC50
T7 construct: GST-tagged recombinant human MET kinase domain; purchased Signal Chem
Method: as §1

[8] = target: T8, human MET kinase Y1230C (Homo sapiens, UniProt P08581, Y1230C); assay: c-Met Enzyme Assay, Y1230C mutant; format: binding; details: averaged IC50; Y1230C 2 nM; 60-minute incubation at 22° C.; read-out: Y1230 C IC50
T8 construct: GST-tagged recombinant human MET kinase domain; purchased Signal Chem
Method: as §1

T1 sequence (P08581 1078-1345 F1200I limits assumed): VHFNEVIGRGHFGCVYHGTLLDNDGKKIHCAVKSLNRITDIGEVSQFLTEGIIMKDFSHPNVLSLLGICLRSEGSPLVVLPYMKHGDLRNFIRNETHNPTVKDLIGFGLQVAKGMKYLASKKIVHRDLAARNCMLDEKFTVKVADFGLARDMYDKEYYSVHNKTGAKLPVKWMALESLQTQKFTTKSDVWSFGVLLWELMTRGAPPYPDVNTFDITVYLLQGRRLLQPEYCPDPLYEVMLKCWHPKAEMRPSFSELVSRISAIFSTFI
T2 sequence (P08581 1078-1345 Y1230H): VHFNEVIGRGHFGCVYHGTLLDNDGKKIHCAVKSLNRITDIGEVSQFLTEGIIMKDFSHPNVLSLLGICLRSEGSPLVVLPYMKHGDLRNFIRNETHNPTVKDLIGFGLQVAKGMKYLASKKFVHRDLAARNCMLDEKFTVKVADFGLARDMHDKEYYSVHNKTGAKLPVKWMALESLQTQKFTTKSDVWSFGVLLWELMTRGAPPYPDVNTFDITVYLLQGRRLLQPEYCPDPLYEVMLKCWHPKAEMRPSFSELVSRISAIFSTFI
T7 sequence (P08581 1078-1345 D1228H): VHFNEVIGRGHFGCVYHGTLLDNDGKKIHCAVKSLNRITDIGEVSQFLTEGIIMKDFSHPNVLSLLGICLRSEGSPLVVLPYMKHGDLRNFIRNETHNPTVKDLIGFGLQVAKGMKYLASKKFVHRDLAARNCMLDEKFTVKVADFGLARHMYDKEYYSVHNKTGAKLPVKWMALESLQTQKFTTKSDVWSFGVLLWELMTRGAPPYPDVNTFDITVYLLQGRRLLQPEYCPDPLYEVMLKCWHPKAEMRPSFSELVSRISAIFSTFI
T5 sequence (P08581 1078-1345 Y1230S): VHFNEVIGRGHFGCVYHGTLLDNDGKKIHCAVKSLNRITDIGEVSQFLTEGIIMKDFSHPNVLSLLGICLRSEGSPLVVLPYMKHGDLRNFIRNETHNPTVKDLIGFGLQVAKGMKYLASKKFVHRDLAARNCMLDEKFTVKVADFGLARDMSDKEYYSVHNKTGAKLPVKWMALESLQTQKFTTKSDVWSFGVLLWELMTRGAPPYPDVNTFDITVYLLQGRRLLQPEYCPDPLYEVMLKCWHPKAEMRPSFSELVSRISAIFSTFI
T4 sequence (P08581 with tags, fused parts or gaps DEL963-1009 limits assumed): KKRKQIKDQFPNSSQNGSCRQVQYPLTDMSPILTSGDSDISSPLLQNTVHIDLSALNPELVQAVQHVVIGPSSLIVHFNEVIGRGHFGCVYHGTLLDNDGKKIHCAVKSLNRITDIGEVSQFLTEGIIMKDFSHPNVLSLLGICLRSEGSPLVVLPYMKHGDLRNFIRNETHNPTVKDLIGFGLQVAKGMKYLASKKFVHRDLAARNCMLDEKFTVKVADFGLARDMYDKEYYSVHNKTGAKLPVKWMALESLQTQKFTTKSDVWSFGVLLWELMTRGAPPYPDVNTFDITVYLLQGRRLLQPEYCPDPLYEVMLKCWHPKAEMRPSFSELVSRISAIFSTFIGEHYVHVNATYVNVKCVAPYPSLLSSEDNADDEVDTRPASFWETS
T8 sequence (P08581 1078-1345 Y1230C): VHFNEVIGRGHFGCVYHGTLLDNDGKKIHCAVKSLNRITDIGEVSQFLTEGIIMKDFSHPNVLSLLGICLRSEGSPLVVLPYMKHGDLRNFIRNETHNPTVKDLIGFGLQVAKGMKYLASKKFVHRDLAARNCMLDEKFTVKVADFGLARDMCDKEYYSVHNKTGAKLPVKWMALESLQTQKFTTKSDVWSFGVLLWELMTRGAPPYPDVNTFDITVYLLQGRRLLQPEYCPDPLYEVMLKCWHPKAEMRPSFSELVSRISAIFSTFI

Row | SMILES | IC50 [1] [nM] | IC50 [2] [nM] | IC50 [3] [nM] | IC50 [4] [nM] | IC50 [5] [nM] | IC50 [6] [nM] | IC50 [7] [nM] | IC50 [8] [nM]
1 | COc1cc2nccc(Oc3ccc(NC(=O)c4cn(C(C)C)cc(-c5ccc(F)c(Cl)c5)c4=O)nc3)c2cc1OC [Example 21, 5-(3-chloro-4-fluorophenyl)-N-(5-((6,7-dimethoxyquinolin-4-yl)oxy)pyridin-2-yl)-1-isopropyl-4-oxo-1,4-dihydropyridine-3-carboxamide] | 16.2 | 51.3 | 10 | 13.6 | 29.2 | 26 | 18.7 | 20.4
2 | COc1cc2nccc(Oc3ccc(NC(=O)c4cn(CC(=O)N(C)C)cc(-c5ccc(F)c(F)c5)c4=O)nc3)c2cc1OC [Example 24, 5-(3,4-difluorophenyl)-N-(5-((6,7-dimethoxyquinolin-4-yl)oxy)pyridin-2-yl)-1-(2-(dimethylamino)-2-oxoethyl)-4-oxo-1,4-dihydropyridine-3-carboxamide] | 11.2 | 22.7 | 5 | 10.5 | 16.5 | 54 | 15.2 | 14.3
3 | COc1cc2nccc(Oc3ccc(NC(=O)c4cn(CC(=O)N(C)C)cc(-c5ccc(Cl)cc5)c4=O)nc3)c2cc1OC [Example 25] | 11.5 | 21.2 | 5 | 9.5 | 8 | 54 | 22.3 | 10.4
4 | COc1cc2nccc(Oc3ccc(NC(=O)c4c[nH]cc(-c5ccc(F)cc5)c4=O)nc3)c2cc1OC [Example 26, N-(5-((6,7-dimethoxyquinolin-4yl)oxy)pyridin-2-yl)-5-(4-fluorophenyl)-4-oxo-1,4-dihydropyridine-3-carboxamide] | 6.4 | 17 | 5 | 5.2 | 9.1 | 15 | 12.5 | 6.5
5 | COc1ccc(-c2cn(C(C)C)cc(C(=O)Nc3ccc(Oc4ccnc5cc(OC)c(OC)cc45)cn3)c2=O)cc1 [Example 30, N-(5-((6,7-dimethoxyquinolin-4yl)oxy)pyridin-2-yl)-1-isopropyl-5-(4-methoxyphenyl)-4-oxo-1,4-dihydropyridine-3-carboxamide] | 59.1 | 103 | 5 | 50.3 | 89.2 | 20 | 57.4 | 83.5

The next compounds have a lower IC50 [1] than those just listed; values first:

Row | IC50 [1] [nM] | IC50 [2] [nM] | IC50 [3] [nM] | IC50 [4] [nM] | IC50 [5] [nM] | IC50 [6] [nM] | IC50 [7] [nM] | IC50 [8] [nM] | SMILES
6 | 5.1 | 9.9 | 3 | 3.8 | 6.2 | 6 | 9.9 | 7.7 | COc1cc(-c2cn(C(C)C)cc(C(=O)Nc3ccc(Oc4ccnc5cc(OC)c(OC)cc45)cn3)c2=O)ccc1F [Example 20, N-(5-((6,7-dimethoxyquinolin-4yl)oxy)pyridin-2-yl)-5-(4-fluoro-3-methoxyphenyl)-1-isopropyl-4-oxo-1,4-dihydropyridine-3-carboxamide]
7 | 4.3 | 7.8 | 3 | 2.9 | 3.8 | 14 | 11.5 | 14.5 | COc1cc2nccc(Oc3ccc(NC(=O)c4cn(CC(=O)N(C)C)cc(-c5ccc(F)cc5)c4=O)nc3)c2cc1OC [Example 23, N-(5-((6,7-dimethoxyquinolin-4yl)oxy)pyridin-2-yl)-1-(2-(dimethylamino)-2-oxoethyl)-5-(4-fluorophenyl)-4-oxo-1,4-dihydropyridine-3-carboxamide]
8 | 3.2 | 4.2 | 3 | 2.5 | 1.5 | 6 | 2.4 | 2.6 | CCc1c(-c2ccc(F)cc2)c(=O)c(C(=O)Nc2ccc(Oc3ccnc4cc(OC)c(OC)cc34)cn2)cn1C(C)C [Example 29, N-(5-((6,7-dimethoxyquinolin-4yl)oxy)pyridin-2-yl)-6-ethyl-5-(4-fluorophenyl)-1-isopropyl-4-oxo-1,4-dihydropyridine-3-carboxamide]
9 | 2.8 | 2.7 | 2 | 1.9 | 1.8 | 4 | 1.6 | 2 | COc1cc2nccc(Oc3ccc(NC(=O)c4cn(C(C)C)cc(-c5ccc(F)cc5C)c4=O)nc3)c2cc1OC [Example 19, N-(5-((6,7-dimethoxyquinolin-4yl)oxy)pyridin-2-yl)-5-(4-fluoro-2-methylphenyl)-1-isopropyl-4-oxo-1,4-dihydropyridine-3-carboxamide]
10 | 2.5 | 4.3 | 3 | 3.1 | 2.2 | 14 | 4.2 | 2 | CNC(=O)Cn1cc(C(=O)Nc2ccc(Oc3ccnc4cc(OC)c(OC)cc34)cn2)c(=O)c(-c2ccc(F)cc2)c1 [Example 22]
11 | 2.4 | 7.8 | 3 | 1.9 | 1.8 | 7 | 1.4 | 1.7 | COc1cc2nccc(Oc3ccc(NC(=O)c4cn(C(C)C)c(C)c(-c5ccc(F)c(F)c5)c4=O)nc3)c2cc1OC [Example 28, 5-(3,4-difluorophenyl)-N-(5-((6,7-dimethoxyquinolin-4yl)oxy)pyridin-2-yl)-1-isopropyl-6-methyl-4-oxo-1,4-dihydropyridine-3-carboxamide]
12 | 1.6 | 2.3 | 2 | 1.1 | 1.1 | 3 | 1.1 | 1.5 | COc1cc2nccc(Oc3ccc(NC(=O)c4cn(C(C)C)c(C)c(-c5ccc(F)cc5)c4=O)nc3)c2cc1OC [Example 27, N-(5-((6,7-dimethoxyquinolin-4yl)oxy)pyridin-2-yl)-5-(4-fluorophenyl)-1-isopropyl-6-methyl-4-oxo-1,4-dihydropyridine-3-carboxamide]
